Results from patent publication US7504410B2, “Chk-, Pdk- and Akt-inhibitory pyrimidines, their production and use as pharmaceutical agents” (Schering Aktiengesellschaft, priority 2002, dated 2009).

Assays:
Chk1 = target: T1, Chk1 (Homo sapiens, UniProt O14757); assay: Chk1 kinase assay (SPA); type: biochemical; settings: read-out: Chk-1 IC50
T1 construct: His6 (C); made in house; host or cells: Sf-9 insect cells (baculovirus)
T1 sequence (O14757 1-476): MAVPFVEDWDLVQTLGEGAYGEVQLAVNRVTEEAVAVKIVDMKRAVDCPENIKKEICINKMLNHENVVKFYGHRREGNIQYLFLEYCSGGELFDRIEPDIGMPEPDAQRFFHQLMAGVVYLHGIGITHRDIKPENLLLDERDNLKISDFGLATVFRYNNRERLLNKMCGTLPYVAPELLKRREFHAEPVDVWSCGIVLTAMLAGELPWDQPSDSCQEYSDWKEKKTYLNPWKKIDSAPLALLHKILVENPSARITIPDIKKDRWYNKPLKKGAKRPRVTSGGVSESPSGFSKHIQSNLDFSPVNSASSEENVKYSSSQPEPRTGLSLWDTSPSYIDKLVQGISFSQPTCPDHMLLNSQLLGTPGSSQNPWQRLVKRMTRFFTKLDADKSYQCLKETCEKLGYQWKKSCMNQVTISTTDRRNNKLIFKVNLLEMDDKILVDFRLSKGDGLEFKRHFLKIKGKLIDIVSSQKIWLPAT
Source text: Recombinant Chk1-His6-fusion protein, expressed in insect cells (Sf-9) and purified by Ni-NTA affinity chromatography was used as kinase. Alternatively, commercially available GST-Chk1-fusion protein (Upstate Biotechnology, Dundee, Scotland) can be used. As substrate for the kinase reaction the biotinylated peptide biotin-Arg-Ser-Gly-Leu-Tyr-Arg-Ser-Pro-Ser-Met-Pro-Glu-Asn-Leu-Asn-Arg-Pro-Arg-OH was used which can be purchased e.g. from the company Biosyntan GmbH (Berlin-Buch, Germany).
Chk1 (200 ng/measurement point) was incubated for 60 min at 22 °C in the presence of different concentrations of test compounds (0 μM and concentrations in the range 0.001-30 μM) in 30 μl assay buffer [50 mM Hepes/NaOH pH7.5, 10 mM MgCl2, 1 mM MnCl2, 0.1 mM sodium ortho-vanadate, 1.0 mM dithiothreitol, 0.5 μM adenosine-tri-phosphate (ATP), 1.9 μM substrate peptide (Biotin-Arg-Ser-Gly-Leu-Tyr-Arg-Ser-ProSer-Met-Pro-Glu-Asn-Leu-Asn-Arg-Pro-Arg-OH), 6 nCi/measurement point ^33P-gamma ATP, 0.008% NP40, 1.5% (v/v) dimethylsulfoxide]. The reaction was stopped by the addition of 20 μl of a suspension of streptavidine coated PVT-SPA-beads (0.15 mg/measurement point, from Amersham Biotech) in an aqueous EDTA/ATP-solution (20 mM EDTA, 50 μM ATP, 1% (v/v) Triton X-100 in PBS).
The resulting mixture was incubated further 16 h at 22° C. to allow the binding of the biotinylated peptide to the streptavidine coated PVT-SPA-beads and to allow the sedimentation of the beads. Subsequently the amount of 33P incorporated into the substrate peptide was evaluated by scintillation measurement in a Topcount NXT (Perkin-Elmer).

[1] = PDK-1-dependent activation and subsequent enzymatic activity of AKT2 (SPA); type: biochemical, human; settings: AKT2 activated by PDK-1 in the assay; read-out: Akt-2 inhibition IC50
Method: PDK-1-dependent activation and subsequent enzymatic activity of AKT2: Purified human AKT2 activity was routinely measured in an assay in which the enzyme was first activated by PDK-1 in the presence of phosphatidylinositol-4,5-bisphosphate (PIP2). Once activated, AKT2-dependent phosphorylation of a peptide substrate was measured by scintillation proximity assay (SPA).
Phospholipid vesicles were prepared as follows: 2.2 mg each of phosphatidylcholine (Sigma Cat # P-1287) and phosphatidylserine (Sigma Cat #P-6641) were transferred to a borosilicate glass test tube and dried down under nitrogen. 1 mg of PIP2 (Biomol Cat #PH-106) was suspended in 9.5 ml of 10 mM HEPES, pH 7.5 and transferred to the dried lipids. The tube was vortexed until a milky suspension was produced. Then the tube was placed in a ice water-jacketed cup horn sonicator (Branson Instruments) and subjected to sonication for 20 min at medium power until a translucent phospholipid vesicle preparation was obtained. Aliquots of the vesicle suspension were frozen at −80 °C until needed.
Assays were performed in 96-well polypropylene V-bottom plates. Incubations were carried out for 2 hr at room temperature. The assay mixture contained in a volume of 60 μL: 15 mM MOPS, pH 7.2, 1 mg/ml bovine serum albumin, 18 mM betaglycerolphosphate, 0.7 mM dithiothreitol, 3 mM EGTA, 10 mM MgOAc, 7.5 (M ATP, 0.2 μCi of [γ-^33P]ATP, 7.5 μM biotinylated peptide substrate (biotin-ARRRDGGGAQPFRPRAATF), 0.5 μL of PIP2-containing phospholipid vesicles, 60 pg of purified recombinant human PDK-1, and 172 ng of purified recombinant human AKT2. Test compounds were added from stock solutions in DMSO. The final concentration of DMSO was 2.5%. Following incubation, 10 μL of the assay mixture was transferred to a 96-well clear-bottom polystyrene plate (Wallac Isoplate) containing 0.33 mg of streptavidin-coated SPA beads (Amersham Cat. # RPNQ0007) suspended in 200 μL of phosphate-buffered saline, pH 7.4, containing 50 mM EDTA and 0.1% Triton X-100. After brief shaking, the SPA beads were allowed to settle to the bottom of the plate overnight at room temperature. […] PDK-1 was added at sub-optimal levels so that the assay could sensitively detect inhibitors of AKT2 activation as well as direct AKT2 kinase inhibitors. The z′-factor for the assay was greater than 0.7.
Phosphorylation was readily observed, however, upon addition of purified activated human AKT1 (purchased from Upstate Biotechnology), independent of the presence or absence of added PDK-1 or PIP2-containing vesicles.

VEGFR II (KDR) = target: T2, VEGFR II (KDR) (Homo sapiens, UniProt P35968); assay: KDR kinase assay (HTRF); type: biochemical
T2 construct: GST; made in house; host or cells: Sf-9 insect cells
T2 sequence (P35968 20-1356, species assumed): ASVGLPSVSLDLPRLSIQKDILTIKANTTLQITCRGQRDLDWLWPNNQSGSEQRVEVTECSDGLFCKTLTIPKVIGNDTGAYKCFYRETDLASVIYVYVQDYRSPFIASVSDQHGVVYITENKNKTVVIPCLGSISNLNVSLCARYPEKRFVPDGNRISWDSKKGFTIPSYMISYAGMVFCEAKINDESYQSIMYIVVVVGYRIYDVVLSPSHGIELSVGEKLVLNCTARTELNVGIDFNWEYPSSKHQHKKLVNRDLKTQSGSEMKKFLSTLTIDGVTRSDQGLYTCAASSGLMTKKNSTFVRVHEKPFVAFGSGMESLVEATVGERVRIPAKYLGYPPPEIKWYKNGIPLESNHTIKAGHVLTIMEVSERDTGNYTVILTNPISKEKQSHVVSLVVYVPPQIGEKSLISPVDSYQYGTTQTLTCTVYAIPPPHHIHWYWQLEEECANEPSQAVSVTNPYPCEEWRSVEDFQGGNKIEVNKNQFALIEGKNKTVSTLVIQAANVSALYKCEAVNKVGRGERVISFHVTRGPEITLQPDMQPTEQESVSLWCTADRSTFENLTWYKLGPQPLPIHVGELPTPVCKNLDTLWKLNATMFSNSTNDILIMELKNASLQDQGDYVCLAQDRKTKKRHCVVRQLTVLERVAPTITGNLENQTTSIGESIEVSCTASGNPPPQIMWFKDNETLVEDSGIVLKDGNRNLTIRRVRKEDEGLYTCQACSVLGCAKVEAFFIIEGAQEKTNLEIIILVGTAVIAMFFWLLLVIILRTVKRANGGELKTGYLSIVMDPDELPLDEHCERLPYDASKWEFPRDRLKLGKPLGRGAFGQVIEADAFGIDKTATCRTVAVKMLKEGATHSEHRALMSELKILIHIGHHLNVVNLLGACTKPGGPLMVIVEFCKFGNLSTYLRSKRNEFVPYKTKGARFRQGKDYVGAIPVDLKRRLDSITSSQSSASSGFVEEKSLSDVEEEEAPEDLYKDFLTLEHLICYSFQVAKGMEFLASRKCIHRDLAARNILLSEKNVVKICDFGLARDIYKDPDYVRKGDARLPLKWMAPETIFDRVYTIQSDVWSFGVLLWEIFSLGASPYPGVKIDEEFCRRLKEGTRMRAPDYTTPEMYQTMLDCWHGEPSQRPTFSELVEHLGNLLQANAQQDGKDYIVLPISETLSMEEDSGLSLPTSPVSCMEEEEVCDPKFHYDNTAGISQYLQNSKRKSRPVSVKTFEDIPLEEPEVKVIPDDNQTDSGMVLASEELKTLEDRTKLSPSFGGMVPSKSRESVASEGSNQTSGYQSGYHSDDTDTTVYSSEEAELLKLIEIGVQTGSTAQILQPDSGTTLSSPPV
Source text: Recombinant KDR-GST-fusion protein, expressed in insect cells (Sf-9) and purified by Glutathion affinity chrormatography was used as kinase. Alternatively, commercially available GST-KDR-fusion protein (Proqinase, Freiburg i.Brsg., Germany) can be used. As substrate for the kinase reaction the biotinylated copolymer poly-(Glu, Tyr-4:1) which can be purchased e.g. from the company Cisbiointernational (Marcoule, France).
In a black low volume 384 well microtiterplate (Greiner, Frickenhausen, Germany) KDR (enzyme amount depending on lot, adjusted to give an dF of about 300-400) was incubated for 20 min at 22° C. in the presence of different concentrations of test compounds (0 μM and concentrations in the range 0.001-30 μM) in 15 μl assay buffer [50 mM Hepes/NaOH pH7.0, 25 mM MgCl2, 5 mM MnCl2, 0.5 mM sodium ortho-vanadate, 1.0 mM dithiothreitol, 1 μM adenosine-tri-phosphate (ATP), 23.5 μg/ml substrate [biotinylated poly-(Glu, Tyr; 4:1)], 1.5% (v/v) dimethylsulfoxide]. The reaction was stopped by the addition of 5 μl of a solution of the detection reagents [0.3 μg/ml Eu-W1024-labeled antiphosphotyrosine antibody (PT66) (Perkin-Elmer) and 4.125 μg/ml […] (Cisbiointernational, Marcoule, France)] in an aqueous EDTA-solution (250 mM EDTA, 0.1% (w/v) bovine serum albumine in 100 mM HEPES/NaOH pH 7.0).
The resulting mixture was incubated further 2 h at 22° C. to allow the binding of the biotinylated substrate and product to the SA-XL-665 and the EU labeled anti-phosphotyrosine antibody. Subsequently the amount of phosphate incorporated into the substrate was evaluated by resonance energy transfer measurement in a HTRF reader (Discovery, Perkin-Elmer).
The IC50 values are determined from the inhibitor concentration that is necessary to inhibit the phosphate incorporation to 50% of the uninhibited incorporation after removal of the blank reading (EDTA-stopped reaction).

Structure (SMILES) | IC50 (Chk1) [µM] | IC50 [1] [µM] | IC50 (VEGFR II (KDR)) [µM]
Brc1cnc(Nc2cccc(CN3CC=CC3)c2)nc1NCCc1c[nH]cn1 [Example 65] | 0.44 |  | 
O=C(Nc1cccc(Nc2ncc(Br)c(NCCc3c[nH]cn3)n2)c1)N1CCCC1 [Example 220] |  | 0.006 | 
CCN(CCN1CCCCC1)C(=O)Nc1cccc(Nc2ncc(Br)c(NCCc3c[nH]cn3)n2)c1 [Example 389] |  |  | 0.33
CN1CC(=O)N(c2cccc(Nc3ncc(Br)c(NCCc4c[nH]cn4)n3)c2)C1=O [Example 395] |  |  | 0.032
O=C1N[C@H](C(=O)NCCCNc2nc(Nc3cccc(NC(=O)N4CCCC4)c3)ncc2Br)CS1 [Example 452] |  |  | 0.0097
CC(C)CC(=O)NCCCNc1nc(Nc2cccc(NC(=O)N3CCCC3)c2)ncc1Br [Example 473] |  |  | 0.4
CCOC(=O)NCCCNc1nc(Nc2cccc(NC(=O)N3CCCC3)c2)ncc1Br [Example 477] |  |  | 0.74
NC(=O)C1(C(=O)NCCCNc2nc(Nc3cccc(NC(=O)[C@@H]4CCCN4)c3)ncc2Br)CC1 [Example 492] |  | 0.023 | 
CC(C)(C(N)=O)C(=O)NCCCNc1nc(Nc2cccc(NC(=O)[C@H](N)Cc3ccccc3)c2)ncc1Br [Example 504] |  | 0.024 | 
C[C@@H](N)C(=O)NCCCNc1nc(Nc2cccc(NC(=O)N3CCCC3)c2)ncc1Br [Example 512] |  |  | 1.4
CC(C)(C(N)=O)C(=O)NCCCNc1nc(Nc2cccc(NC(=O)[C@@H](N)c3ccccc3)c2)ncc1Br [Example 521] |  | 0.044 | 
O=C1N[C@H](C(=O)NCCCNc2nc(Nc3cccc(N4C(=O)CNC4=O)c3)ncc2Br)CS1 [Example 535] |  |  | 0.0026
O=C1CC[C@@H](C(=O)NCCCNc2nc(Nc3cccc(N4C(=O)CNC4=O)c3)ncc2Br)N1 [Example 539] |  |  | 0.0106
CC(C)(C(N)=O)C(=O)NCCCNc1nc(Nc2cccc(N3C(=O)CNC3=O)c2)ncc1Br [Example 540] |  | 0.019 | 
CN1CC(=O)N(c2cccc(Nc3ncc(Br)c(NCCCNC(=O)[C@@H]4CSC(=O)N4)n3)c2)C1=O [Example 546] |  | 0.004 | 0.004
O=C(Cc1ccc(Cl)cc1Cl)NCCCNc1nc(Nc2cccc(NC(=O)N3CCCC3)c2)ncc1Br [Example 699] | 0.02 |  | 
C#CCOc1nc(Nc2cc(NC(=O)[C@H](N)Cc3ccccc3)cc(NC(=O)N3CCCC3)c2)ncc1Br [Example A16] | 0.3 |  | 
C#CCOc1nc(Nc2cc(CO)cc(NC(=O)[C@H](N)Cc3ccccc3)c2)ncc1Br [Example A17, (αR)-α-Amino-N-[3-[[5-bromo-4-(prop-2-ynyloxy)pyrimidin-2-yl]amino]-5-(hydroxymethyl)phenyl]benzenepropanamide] | 0.2 |  | 
C#CCOc1nc(Nc2cc(CO)cc(NCCO)c2)ncc1Br [Example A18, 3-[[5-Bromo-4-(prop-2-ynyloxy)pyrimidin-2-yl]amino]-5-[(2-hydroxyethyl)amino]benzenemethanol] | 0.08 |  | 
